The source of these data is patent US10669270B2, “Amide-sulfamide derivatives, compositions, and uses related to CXCR4 inhibition” (Emory University, priority 2016, dated 2020).

Tested on in the first series: not given
Assay: not given
Details: not given
In the case of `COc1ccc(C(=O)NCc2ccc(CNS(=O)(=O)c3ccccc3)cc2)cc1` [IIIg, 4-Methoxy-N-(4-(phenylsulfonamidomethyl)benzyl)benzamide], the melting point fell in the range of 164 to 166 °C.

On to `O=C(NCc1ccc(CNS(=O)(=O)c2ccc(F)cc2F)cc1)c1ncc[nH]1` [Ie, N-(4-((2,4-difluorophenylsulfonamido)methyl)benzyl)-1H-imidazole-2-carboxamide], for which the melting point lay in the range of 225 to 227 °C.

For `Cc1ccc(S(=O)(=O)NCc2ccc(CNC(=O)c3ccccc3)cc2)cc1` [IIa, N-(4-((4-methylphenylsulfonamido)methyl)benzyl)benzamide], the melting point lay in the range of 162 to 164 °C.

As for `O=C(NCc1ccc(CNS(=O)(=O)c2ccccc2)cc1)c1cccc(Cl)c1` [IIIm, 3-Chloro-N-(4-(phenylsulfonamidomethyl)benzyl)benzamide], the melting point was in the range of 114 to 116 °C.

Take `Cc1ccc(S(=O)(=O)NCc2ccc(CNC(=O)c3cccc(C)c3)cc2)cc1` [IIc, 3-Methyl-N-(4-((4-methylphenylsulfonamido)methyl)benzyl)benzamide]: the melting point is 123 to 125 °C.

Compound `Cc1ccc(S(=O)(=O)NCc2ccc(CNC(=O)c3cccc(F)c3)cc2)cc1` [IIi, 3-Fluoro-N-(4-((4-methylphenylsulfonamido)methyl)benzyl)benzamide] had a melting point of 137 to 139 °C.

On to `O=C(NCc1ccc(CNS(=O)(=O)c2ccc3c(c2)CCO3)cc1)c1cccc2c1COC2` [Id, N-(4-((2,3-dihydrobenzofuran-5-sulfonamido)methyl)benzyl)-1,3-dihydroisobenzofuran-4-carboxamide], for which the melting point lay in the range of 149 to 151 °C.

Compound `O=C(NCc1ccc(CNS(=O)(=O)c2ccccc2)cc1)c1ccccc1Cl` [IIIk, 2-Chloro-N-(4-(phenylsulfonamidomethyl)benzyl)benzamide] yielded a melting point of 116 to 118 °C.

Turning to `O=C(NCc1ccc(CNS(=O)(=O)c2ccccc2)cc1)c1ccncc1` [IIIr, N-(4-(phenylsulfonamidomethyl)benzyl)isonicotinamide], the melting point was 154 to 156 °C.

Compound `O=C(NCc1ccc(CNS(=O)(=O)c2cccc(F)c2)cc1)c1cc2ccccn2n1` [Ih, N-(4-((3-fluorophenylsulfonamido)methyl)benzyl)pyrazolo[1,5-a]pyridine-2-carboxamide] came in with a melting point of 163 to 165 °C.

With `O=C(NCc1ccc(CNS(=O)(=O)c2ccccc2)cc1)c1ccc(Cl)cc1` [IIIn, 4-Chloro-N-(4-(phenylsulfonamidomethyl)benzyl)benzamide], the melting point fell in the range of 182 to 184 °C.

`Cn1nccc1C(=O)NCc1ccc(CNS(=O)(=O)c2ccc3c(c2)CCO3)cc1` [Ic, N-(4-((2,3-dihydrobenzofuran-5-sulfonamido)methyl)benzyl)-1-methyl-1H-pyrazole-5-carboxamide] showed a melting point of 143 to 145 °C.

For the compound `Cc1ccc(C(=O)NCc2ccc(CNS(=O)(=O)c3ccc(C)cc3)cc2)cc1` [IId, 4-Methyl-N-(4-((4-methylphenylsulfonamido)methyl)benzyl)benzamide], the melting point was 180 to 182 °C.

Compound `Cc1ccc(S(=O)(=O)NCc2ccc(CNC(=O)c3c(Cl)cc(Cl)cc3Cl)cc2)cc1` [IIp, 2,4,6-Trichloro-N-(4-((4-methylphenylsulfonamido)methyl)benzyl)benzamide] gave a melting point of 188 to 190 °C.

The compound `O=C(NCc1ccc(CNS(=O)(=O)c2ccc(F)c(F)c2)cc1)c1cnc2ccccn12` [Ii, N-(4-((3,4-difluorophenylsulfonamido)methyl)benzyl)imidazo[1,2-a]pyridine-3-carboxamide] returned a melting point of 192 to 194 °C.

In the case of `Cc1ccc(S(=O)(=O)NCc2ccc(CNC(=O)c3ccncc3)cc2)cc1` [IIr, N-(4-((4-methylphenylsulfonamido)methyl)benzyl)isonicotinamide], the melting point fell in the range of 163 to 165 °C.

In the case of `Cc1ccc(S(=O)(=O)NCc2ccc(CNC(=O)c3cccnc3)cc2)cc1` [IIq, N-(4-((4-methylphenylsulfonamido)methyl)benzyl)nicotinamide], the melting point is 120 to 122 °C.

Consider `O=C(NCc1ccc(CNS(=O)(=O)c2ccccc2F)cc1)c1cc2ccccn2n1` [Ij, N-(4-((2-fluorophenylsulfonamido)methyl)benzyl)pyrazolo[1,5-a]pyridine-2-carboxamide], for which the melting point lay within 138 to 140 °C.

In turn, `O=C(NCc1ccc(CNS(=O)(=O)c2ccccc2)cc1)c1cccnc1` [IIIq, N-(4-(phenylsulfonamidomethyl)benzyl)nicotinamide] showed a melting point of 109 to 111 °C.

The compound `Cc1ccc(S(=O)(=O)NCc2ccc(CNC(=O)c3ccccc3F)cc2)cc1` [IIh, 2-Fluoro-N-(4-((4-methylphenylsulfonamido)methyl)benzyl)benzamide] registered a melting point of 138 to 140 °C.

The compound `COc1ccccc1C(=O)NCc1ccc(CNS(=O)(=O)c2ccccc2)cc1` [IIIe, 2-Methoxy-N-(4-(phenylsulfonamidomethyl)benzyl)benzamide] showed a melting point of 123 to 125 °C.

Consider `Cc1ccc(S(=O)(=O)NCc2ccc(CNC(=O)c3ccc([N+](=O)[O-])cc3)cc2)cc1` [IIo, N-(4-((4-methylphenylsulfonamido)methyl)benzyl)-4-nitrobenzamide], for which the melting point was 207 to 209 °C.

In turn, `O=C(NCc1ccc(CNS(=O)(=O)c2ccc3c(c2)CCO3)cc1)c1cc2ccccn2n1` [Ib, N-(4-((2,3-dihydrobenzofuran-5-sulfonamido)methyl)benzyl)pyrazolo[1,5-a]pyridine-2-carboxamide] registered a melting point of 180 to 182 °C.

In turn, `O=C(NCc1ccc(CNS(=O)(=O)c2ccccc2)cc1)c1ccccc1F` [IIIh, 2-Fluoro-N-(4-(phenylsulfonamidomethyl)benzyl)benzamide] registered a melting point of 122 to 124 °C.

`Cc1ccc(S(=O)(=O)NCc2ccc(CNC(=O)c3ccc(Cl)cc3)cc2)cc1` [IIn, 4-Chloro-N-(4-((4-methylphenylsulfonamido)methyl)benzyl)benzamide] showed a melting point of 201 to 203 °C.

`COc1cccc(C(=O)NCc2ccc(CNS(=O)(=O)c3ccc(C)cc3)cc2)c1` [IIf, 3-Methoxy-N-(4-((4-methylphenylsulfonamido)methyl)benzyl)benzamide] came in with a melting point of 130 to 132 °C.

Regarding `Cc1ccc(C(=O)NCc2ccc(CNS(=O)(=O)c3ccccc3)cc2)cc1` [IIId, 4-Methyl-N-(4-(phenylsulfonamidomethyl)benzyl)benzamide], the melting point lay in the range of 188 to 190 °C.

Compound `Cc1ccc(S(=O)(=O)NCc2ccc(CNC(=O)c3ccccc3Cl)cc2)cc1` [IIk, 2-Chloro-N-(4-((4-methylphenylsulfonamido)methyl)benzyl)benzamide] registered a melting point of 140 to 142 °C.

Consider `COc1cccc(C(=O)NCc2ccc(CNS(=O)(=O)c3ccccc3)cc2)c1` [IIIf, 3-Methoxy-N-(4-(phenylsulfonamidomethyl)benzyl)benzamide], for which the melting point is 120 to 122 °C.

As for `COc1ccccc1C(=O)NCc1ccc(CNS(=O)(=O)c2ccc(C)cc2)cc1` [IIe, 2-Methoxy-N-(4-((4-methylphenylsulfonamido)methyl)benzyl)benzamide], the melting point is 154 to 156 °C.

As to `Cc1cccc(C(=O)NCc2ccc(CNS(=O)(=O)c3ccccc3)cc2)c1` [IIIc, 3-Methyl-N-(4-(phenylsulfonamidomethyl)benzyl)benzamide], the melting point was 112 to 114 °C.

As to `Cc1ccc(S(=O)(=O)NCc2ccc(CNC(=O)c3ccccc3C)cc2)cc1` [IIb, 2-Methyl-N-(4-((4-methylphenylsulfonamido)methyl)benzyl)benzamide], the melting point is 147 to 149 °C.

As to `O=C(NCc1ccc(CNS(=O)(=O)c2ccccc2)cc1)c1ccc([N+](=O)[O-])cc1` [IIIo, 4-Nitro-N-(4-(phenylsulfonamidomethyl)benzyl)benzamide], the melting point was in the range of 201 to 203 °C.

Regarding `O=C(NCc1ccc(CNS(=O)(=O)c2ccccc2)cc1)c1c(Cl)cc(Cl)cc1Cl` [IIIp, 2,4,6-Trichloro-N-(4-(phenylsulfonamidomethyl)benzyl)benzamide], the melting point was in the range of 158 to 160 °C.

On to `COc1ccc(C(=O)NCc2ccc(CNS(=O)(=O)c3ccc(C)cc3)cc2)cc1` [IIg, 4-Methoxy-N-(4-((4-methylphenylsulfonamido)methyl)benzyl)benzamide], for which the melting point fell in the range of 147 to 149 °C.

Turning to `Cc1ccc(S(=O)(=O)NCc2ccc(CNC(=O)c3cccc(Cl)c3)cc2)cc1` [IIm, 3-Chloro-N-(4-((4-methylphenylsulfonamido)methyl)benzyl)benzamide], the melting point is 110 to 112 °C.

For a further series, the target named is T1, CXCR4 (Homo sapiens, UniProt P61073).
T1 construct: endogenous in cells; host or cells: MDA-MB-231
T1 sequence (P61073 whole entry): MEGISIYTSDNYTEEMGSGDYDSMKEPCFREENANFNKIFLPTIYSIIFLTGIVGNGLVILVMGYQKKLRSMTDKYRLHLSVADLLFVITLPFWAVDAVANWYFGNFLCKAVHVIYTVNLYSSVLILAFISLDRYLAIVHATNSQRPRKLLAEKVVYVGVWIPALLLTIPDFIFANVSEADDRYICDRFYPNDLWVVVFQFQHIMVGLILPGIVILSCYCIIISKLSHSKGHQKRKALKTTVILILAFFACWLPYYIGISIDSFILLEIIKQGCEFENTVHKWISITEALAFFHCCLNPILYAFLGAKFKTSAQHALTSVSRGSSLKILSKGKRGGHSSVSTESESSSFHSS
The series is described as follows: Primary binding affinity screening (competition with biotinylated TN14003 on MDA-MB-231 cells). To be noted: EC relative to AMD3100. The procedure:
For binding affinity assay, 2×10^4 MDA-MB-231 cells in 300 μL of cell culture medium were seeded in an 8-well slide chamber 2 days before the experiments were conducted. Various concentrations of different compounds (1, 10, 100, or 1000 nM) were added to the separate wells and incubated for 10 minutes at room temperature, and then the cells were fixed in 4% ice-cold paraformaldehyde. The cells were rehydrated in phosphate-buffered saline (PBS). The slides were subsequently incubated for 30 minutes at room temperature with 0.05 μg/mL biotinylated TN14003, washed three times with PBS, and incubated in streptavidin-rhodamine (1:150 dilution; Jackson ImmunoResearch Laboratories, West Grove, Pa.) for 30 minutes at room temperature. Finally, the slides were washed with PBS and mounted in an anti-fade mounting solution (Molecular Probes, Eugene, Oreg.), and the samples were analyzed on a Nikon Eclipse E800 microscope.
“Fluoro-N-(4-(phenylsulfonamidomethyl)benzyl)benzamide [IIIi]”: the “potency compared with AMD3100” value is 1000 fold.

Turning to `O=C(NCc1ccc(CNS(=O)(=O)c2ccccc2)cc1)c1ccc(F)cc1` [IIIj, 4-Fluoro-N-(4-(phenylsulfonamidomethyl)benzyl)benzamide], the “potency compared with AMD3100” value worked out at 1000 fold.

On to `COc1ccccc1C(=O)NCc1ccc(CNS(=O)(=O)c2ccccc2)cc1` [IIIe, 2-Methoxy-N-(4-(phenylsulfonamidomethyl)benzyl)benzamide], for which the “potency compared with AMD3100” value came out at 1000 fold.

The same series, now with this note: MDA-MB-231 cells; compounds at 1, 10, 100, or 1000 nM; biotinylated TN14003.
`O=C(NCc1ccc(CNS(=O)(=O)c2ccccc2)cc1)c1ccc(CNc2ncccn2)cc1` [N-(4-(phenylsulfonamidomethyl)benzyl)-4-((pyrimidin-2-ylamino)methyl)benzamide] had an EC of 1 nM.

Take “Fluoro-N-(4-(phenylsulfonamidomethyl)benzyl)benzamide [IIIi]”: the EC was found to be 1 nM.

Consider `O=C(NCc1ccc(CNS(=O)(=O)c2ccccc2)cc1)c1ccc(F)cc1` [IIIj, 4-Fluoro-N-(4-(phenylsulfonamidomethyl)benzyl)benzamide], for which the EC came to 1 nM.

In turn, `COc1ccccc1C(=O)NCc1ccc(CNS(=O)(=O)c2ccccc2)cc1` [IIIe, 2-Methoxy-N-(4-(phenylsulfonamidomethyl)benzyl)benzamide] gave an EC of 1 nM.
